This data set is described as follows: Nanoflow ESI (NanoMate-QTOF), RNLC-NSI-MS of drug and metabolites. The note with it: Vicriviroc and its metabolites, relative LC-MS response, M35 = 100.

Description: For experiments described herein, high performance liquid chromatography (HPLC) separations of analytes were performed at room temperature using the first HPLC system referred to in FIG. 1 as “analytical HPLC”. […] The analytical HPLC column effluent was split (mixing tee 1 or T-1 in FIG. 1) so that 15-25% of the flow was directed to a second mixing tee (T-2 in FIG. 1) connected to the NSI source and 75-85% diverted to an auxiliary detector (e.g. a radioactivity detector (10-11) or a charged aerosol detector (12-13)). Separation of metabolites was achieved using the analytical HPLC system and programmed linear changes in mobile phase composition as shown in Table 1.
A second HPLC pump, referred to in FIG. 1 as the “Response Normalizing HPLC”, was used to deliver an exactly inverse gradient. Inverse gradient was achieved by switching the aqueous mobile phase to pump B and the organic mobile phase to pump A and using the same gradient program as the one used in the analytical HPLC system. The flow rate of the Response Normalizing HPLC system was maintained between 0.1 and 0.2 mL/min. […] The “Response Normalizing Flow” was introduced into the NSI source via a second mixing tee (T-2). HPLC flows from the analytical HPLC and from the “Response Normalizing HPLC” were combined in the second mixing tee (T-2). The combined flow was delivered to the NSI (NanoMate, API, or any other ion sources) via a union (referred in FIG. 1 as “bulkhead”). For NSI experiments, the combined flow is further split using a mixing tee. The split ratio within the NSI source was manipulated by adjusting the various diameters and lengths of fused silica capillary tubing used to deliver the flow to MS and the fraction collector/waste. Approximately 1-5% of the combined flow was delivered to the NSI source for MS analysis.

Consider `COC[C@@H](c1ccc(C(F)(F)F)cc1)N1CCN(C2(C)CCN(C(=O)c3c(C)ncnc3C)CC2)C[C@@H]1C` [Vicriviroc], for which, under “0.15 mL/min normalizing flow”, the “Nanoflow ESI (NanoMate-QTOF) 0.15 mL/min Normalizing HPLC flow” value was 23.0. For the same molecule, for the setting “0.2 mL/min normalizing flow”, the “Nanoflow ESI (NanoMate-QTOF) 0.2 mL/min Normalizing HPLC flow” value is listed as 14.3. The “Nanoflow ESI (NanoMate-QTOF) Without Normalizing HPLC flow” value (no normalizing flow) is reported as 50.0.

Values taken from patent US20080173808A1, “PROCESS AND DEVICE FOR RESPONSE NORMALIZED LIQUID CHROMATOGRAPHY NANOSPRAY IONIZATION MASS SPECTROMETRY (RNLC-NSI-MS)” (Schering Corporation, priority 2007, published 2008).
